Columns and labels:
[1] = Solubility of yellow couplers in 100 ml of ethyl acetate at 25° C.; type: physicochemical; settings: for Solubility: 25° C.; for solubility in ethyl acetate relative to RY-1 and RY-2: in words
Description: Test for Solubility of Yellow Couplers in Organic Solvents:
A test was conducted in order to determine what grams of the yellow coupler shown in Table A below are dissolved in 100 ml of ethyl acetate at 25° C. The yellow coupler was gradually added to 100 ml of ethyl acetate by 0.1 g at a time and stirred for 5 minutes, whereupon the amount not dissolved was referred to as a saturation point. The results are shown in Table A. As comparative couplers, used were the following RY-1 and RY-2. [drawing 15]
Solubility of Couplers in 100 ml of
Ethyl Acetate (at 25° C.)

[2] = Solubility of yellow couplers in high boiling point organic solvents Solv-2, Solv-3 and Solv-9; type: physicochemical; settings: in words
Description: The same test as above was conducted to determine the solubility of the yellow couplers in known high boiling point organic solvents Solv-2, Solv-3 and Solv-9 mentioned below.

| Compound | Solubility [1] [g/100 ml] | solubility in ethyl acetate relative to RY-1 and RY-2 [1] | solubility in known high boiling point organic solvents relative to RY-1 and RY-2 [2] |
| --- | --- | --- | --- |
| CCC(Oc1ccc(C(C)(C)CC)cc1C(C)(C)CC)C(=O)Nc1ccc(Cl)c(NC(=O)C(C(=O)C(C)(C)C)N2C(=O)NC(C)(C)C2=O)c1 (centres unmarked) [RY-1, reference compound] | 15.8 |  |  |
| CCCCCCCCCCCCCCCCCC(=O)Nc1ccc(Cl)c(NC(=O)C(C(=O)C(C)(C)C)N2C(=O)NC(C)(C)C2=O)c1 (centres unmarked) [RY-2, reference compound] | 8.5 |  |  |
| CCCCCCCCC=CCCCCCCCC(=O)Nc1ccc(Cl)c(NC(=O)C(C(=O)C(C)(C)C)N2C(=O)NC(C)(C)C2=O)c1 (centres unmarked) [Y-1] | 21.0 | much larger solubility in ethyl acetate than the known yellow couplers of RY-1 and RY-2 | much larger solubility in such solvents than the known yellow couplers of RY-1 and RY-2 |
| CCCCCC=CCC=CCCCCCCCC(=O)Nc1ccc(Cl)c(NC(=O)C(C(=O)C(C)(C)C)N2C(=O)NC(C)(C)C2=O)c1 (centres unmarked) [Y-2] | 21.2 | much larger solubility in ethyl acetate than the known yellow couplers of RY-1 and RY-2 | much larger solubility in such solvents than the known yellow couplers of RY-1 and RY-2 |
| CCC=CCC=CCC=CCCCCCCCC(=O)Nc1ccc(Cl)c(NC(=O)C(C(=O)C(C)(C)C)N2C(=O)NC(C)(C)C2=O)c1 (centres unmarked) [Y-3] | 21.4 | much larger solubility in ethyl acetate than the known yellow couplers of RY-1 and RY-2 | much larger solubility in such solvents than the known yellow couplers of RY-1 and RY-2 |
| CCCCCCCCC=CCCCCCCCC(=O)Nc1ccc(OC)c(NC(=O)C(C(=O)C(C)(C)C)N2C(=O)NC(C)(C)C2=O)c1 (centres unmarked) [Y-13] | 20.8 | much larger solubility in ethyl acetate than the known yellow couplers of RY-1 and RY-2 | much larger solubility in such solvents than the known yellow couplers of RY-1 and RY-2 |

From patent US5612174A, “Photographic yellow dye-forming couplers and silver halide color photographic materials containing the same” (Fuji Photo Film Co., Ltd., priority 1994, dated 1997)
